Test system: damaged tibialis anterior of mouse
Assay: Creatine kinase levels in serum of mice with damaged tibialis anterior
Assay type: in vivo, Swiss mice
Settings: 300 nmol/kg weight local; 96 h
Experimental: FIG. 12. Analysis of the creatine kinase levels in serum of mice wherein damage was induced in the tibialis anterior muscle and they were treated locally with obestatin or vehicle (PBS) during 96 h. The creatine kinase levels are expressed as IU/L (International units/litre for the three study groups: control without damage, damage control (PBS) and treatment with obestatin (n=10 per group; mean±standard error; *, #, p<0.005).
The mice (30 g; n=50) were maintained in 12 h light-darkness cycled with free access to standard diet and water. To induce the muscle damage, the tibialis anterior muscle (TA) was extracted under anaesthesia and subjected to three cycles of damage due to cold contact applying along the length of the muscle a metal bar cooled in liquid nitrogen. The damaged muscles were treated locally with obestatin injection (300 nmol/kg weight) or the corresponding vehicle (PBS; control) during the times indicated in 24 h intervals. The animals were assigned to one of the five experimental groups (n=10/group): 1) control group (saline); 2) obestatin group 48 h (obestatin 300 nmol/kg weight/24 h); 3) obestatin group 96 h (obestatin 300 nmol/kg weight/24 h); 4) obestatin group 168 h (obestatin 300 nmol/kg weight/24 h); and, obestatin group 240 h (obestatin 300 nmol/kg weight/24 h). […]

Substance: obestatin
- creatine kinase serum levels in relation to muscle damage controls (PBS): significant reduction

Source: patent US20150094264A1, “USE OF OBESTATIN FOR MUSCLE REGENERATION” (UNIVERSIDADE DE SANTIAGO DE COMPOSTELA, priority 2012, published 2015)
